Values after ≈ are worked out from the molar mass of the structure shown. Where two headings read alike, the source gives them in different places.
Key:
[1] = system: Streptococcus pneumoniae (ATCC 49619); test: Antibacterial MIC assay (microbroth dilution, CLSI); format: cell-based
Source text: (§1) All MIC testing of bacteria followed the Clinical and Laboratory Standards Institute (CLSI) guidelines for antimicrobial testing of aerobic bacteria (Methods for Dilution Antimicrobial Susceptibility Tests for Bacteria that Grow Aerobically; Approved Standard—Tenth Edition, M07-A10; Performance Standards for Antimicrobial Susceptibility Testing; Twenty-fifth Informational Supplement, M100-S25).
Briefly, the microbroth dilution MIC method was used to quantitatively measure the in vitro antibacterial activity of a compound against a given bacterial isolate. […] Bacteria were grown in cation-adjusted Mueller-Hinton broth, with additions as required per species growth requirements (e.g. 3% lysed horse blood for fastidious organisms such as S. pneumoniae). A direct colony suspension in saline was prepared from colonies on an overnight agar plate to achieve a turbidity equivalent to 0.5 McFarland standard, which was subsequently diluted into the assay plate to achieve 5×10^5 CFU/mL. Assays plates were prepared by 2-fold dilution of compound across the plate and included a positive growth control.

[2] = system: Staphylococcus aureus, MRSA (ATCC 33591); test: as above; format: cell-based; conditions: read-out: MIC Staphylococcus aureus, MRSA (ATCC 33591)
Source text: as §1
Briefly, the microbroth dilution MIC method was used to quantitatively measure the in vitro antibacterial activity of a compound against a given bacterial isolate. The following bacterial strains were evaluated: Staphylococcus aureus, MRSA (ATCC 33591) and Streptococcus pneumoniae (ATCC 49619). Bacteria were grown in cation-adjusted Mueller-Hinton broth, with additions as required per species growth requirements (e.g. 3% lysed horse blood for fastidious organisms such as S. pneumoniae). A direct colony suspension in saline was prepared from colonies on an overnight agar plate to achieve a turbidity equivalent to 0.5 McFarland standard, which was subsequently diluted into the assay plate to achieve 5×10^5 CFU/mL. Assays plates were prepared by 2-fold dilution of compound across the plate and included a positive growth control.

[3] = ATCC49619, read-out: MIC Streptococcus pneumoniae (ATCC 49619)
[4] = ATCC49619, microbroth dilution, 3% lysed horse blood, 35° C. for 16-20 hours, read-out: MIC Streptococcus pneumoniae (ATCC 49619)
[5] = microbroth dilution, cation-adjusted Mueller-Hinton broth, 35° C. for 16-20 hours

Row | Structure (SMILES) | MIC [1, 3] [µg/mL] | MIC [2] [µg/mL] | MIC [1, 4] [µg/mL] | MIC [2, 5] [µg/mL]
1 | C=C[C@]1(C)C[C@@H](OC(=O)COc2ccc3c(c2F)B(O)N(S(C)(=O)=O)N=C3)[C@]2(C)[C@H](C)CC[C@]3(CCC(=O)[C@H]32)[C@@H](C)[C@@H]1O [Compound 80, (3aR,4R,5R,7S,8S,9R,9aS,12R)-8-hydroxy-4,7,9,12-tetramethyl-3-oxo-7-vinyldecahydro-4,9a-propanocyclopenta[8]annulen-5-yl 2-((8-fluoro-1-hydroxy-2-(methylsulfonyl)-1,2-dihydrobenzo[d][1,2,3]diazaborinin-7-yl)oxy)acetate] | 0.5 to 2 (≈ 0.808 to 3.23 µM) | < 0.25 | – | –
2 | C=C[C@]1(C)C[C@@H](OC(=O)COc2ccc3c(c2F)B(O)ON=C3)[C@]2(C)[C@H](C)CC[C@]3(CCC(=O)[C@H]32)[C@@H](C)[C@@H]1O [Compound 97, (3aR,4R,5R,7S,8S,9R,9aS,12R)-8-hydroxy-4,7,9,12-tetramethyl-3-oxo-7-vinyldecahydro-4,9a-propanocyclopenta[8]annulen-5-yl 2-((8-fluoro-1-hydroxy-1H-benzo[d][1,2,6]oxazaborinin-7-yl)oxy)acetate] | 0.5 to 2 (≈ 0.923 to 3.69 µM) | < 0.25 | – | –
3 | C=C[C@]1(C)C[C@@H](OC(=O)COc2cc3c(cc2OC)COB3O)[C@]2(C)[C@H](C)CC[C@]3(CCC(=O)[C@H]32)[C@@H](C)[C@@H]1O [Compound 15, (3aR,4R,5R,7S,8S,9R,9aS,12R)-8-hydroxy-4,7,9,12-tetramethyl-3-oxo-7-vinyldecahydro-4,9a-propanocyclopenta[8]annulen-5-yl 2-((1-hydroxy-5-methoxy-1,3-dihydrobenzo[c][1,2]oxaborol-6-yl)oxy)acetate] | – | – | < 0.25 | < 0.25
4 | C=C[C@]1(C)C[C@@H](OC(=O)COc2ccc3c(c2OC)B(O)OC3)[C@]2(C)[C@H](C)CC[C@]3(CCC(=O)[C@H]32)[C@@H](C)[C@@H]1O [Compound 14, (3aR,4R,5R,7S,8S,9R,9aS,12R)-8-hydroxy-4,7,9,12-tetramethyl-3-oxo-7-vinyldecahydro-4,9a-propanocyclopenta[8]annulen-5-yl2-((1-hydroxy-7-methoxy-1,3-dihydrobenzo[c][1,2]oxaborol-6-yl)oxy)acetate] | 0.5 to 2 (≈ 0.925 to 3.7 µM) | < 0.25 | – | –
5 | C=C[C@]1(C)C[C@@H](OC(=O)CNc2ccc3c(c2CN)B(O)OC3)[C@]2(C)[C@H](C)CC[C@]3(CCC(=O)[C@H]32)[C@@H](C)[C@@H]1O [Compound 49, (3aR,4R,5R,7S,8S,9R,9aS,12R)-8-hydroxy-4,7,9,12-tetramethyl-3-oxo-7-vinyldecahydro-4,9a-propanocyclopenta[8]annulen-5-yl (7-(aminomethyl)-1-hydroxy-1,3-dihydrobenzo[c][1,2]oxaborol-6-yl)glycinate] | 0.5 to 2 (≈ 0.929 to 3.71 µM) | 0.5 to 2 (≈ 0.929 to 3.71 µM) | – | –
6 | C=C[C@]1(C)C[C@@H](OC(=O)C[S@@+]([O-])c2ccc3c(c2)B(O)OC3)[C@]2(C)[C@H](C)CC[C@]3(CCC(=O)[C@H]32)[C@@H](C)[C@@H]1O [Compound 62, (3aR,4R,5R,7S,8S,9R,9aS,12R)-8-hydroxy-4,7,9,12-tetramethyl-3-oxo-7-vinyldecahydro-4,9a-propanocyclopenta[8]annulen-5-yl2-((R)-(1-hydroxy-1,3-dihydrobenzo[c][1,2]oxaborol-6-yl)sulfinyl)acetate] | 0.5 to 2 (≈ 0.922 to 3.69 µM) | < 0.25 | – | –
7 | C=C[C@]1(C)C[C@@H](OC(=O)COc2ccc3c(c2F)B(O)N(C(=O)OC)N=C3)[C@]2(C)[C@H](C)CC[C@]3(CCC(=O)[C@H]32)[C@@H](C)[C@@H]1O [Compound 93, Methyl 8-fluoro-1-hydroxy-7-(2-(((3aR,4R,5R,7S,8S,9R,9aS,12R)-8-hydroxy-4,7,9,12-tetramethyl-3-oxo-7-vinyldecahydro-4,9a-propanocyclopenta[8]annulen-5-yl)oxy)-2-oxoethoxy)benzo[d][1,2,3]diazaborinine-2(1H)-carboxylate] | 0.5 to 2 (≈ 0.835 to 3.34 µM) | < 0.25 | – | –
8 | C=C[C@]1(C)C[C@@H](OC(=O)COc2ccc3c(c2Cl)B(O)OC3)[C@]2(C)[C@H](C)CC[C@]3(CCC(=O)[C@H]32)[C@@H](C)[C@@H]1O [Compound 6, (3aR,4R,5R,7S,8S,9R,9aS,12R)-8-hydroxy-4,7,9,12-tetramethyl-3-oxo-7-vinyldecahydro-4,9a-propanocyclopenta[8]annulen-5-yl 2-((7-chloro-1-hydroxy-1,3-dihydrobenzo[c][1,2]oxaborol-6-yl)oxy)acetate] | 0.5 to 2 (≈ 0.918 to 3.67 µM) | < 0.25 | – | –
9 | C=C[C@]1(C)C[C@@H](OC(=O)COc2ccc3c(c2F)B(O)OCC3)[C@]2(C)[C@H](C)CC[C@]3(CCC(=O)[C@H]32)[C@@H](C)[C@@H]1O [Compound 68, (3aR,4R,5R,7S,8S,9R,9aS,12R)-8-hydroxy-4,7,9,12-tetramethyl-3-oxo-7-vinyldecahydro-4,9a-propanocyclopenta[8]annulen-5-yl 2-((8-fluoro-1-hydroxy-3,4-dihydro-1H-benzo[c][1,2]oxaborinin-7-yl)oxy)acetate] | – | – | 0.5 to 2 (≈ 0.922 to 3.69 µM) | < 0.25
10 | C=C[C@]1(C)C[C@@H](OC(=O)COc2cc(CN)c3c(c2)B(O)OC3)[C@]2(C)[C@H](C)CC[C@]3(C[C@H](O)C(=O)[C@H]32)[C@@H](C)[C@@H]1O [Compound 42, (2S,3aR,4R,5R,7S,8S,9R,9aS,12R)-2,8-dihydroxy-4,7,9,12-tetramethyl-3-oxo-7-vinyldecahydro-4,9a-propanocyclopenta[8]annulen-5-yl 2-((4-(aminomethyl)-1-hydroxy-1,3-dihydrobenzo[c][1,2]oxaborol-6-yl)oxy)acetate] | – | – | – | 4 to 32 (≈ 7.2 to 57.6 µM)
11 | C=C[C@]1(C)C[C@@H](OC(=O)COc2ccc3c(c2)B(O)NN=C3)[C@]2(C)[C@H](C)CC[C@]3(CCC(=O)[C@H]32)[C@@H](C)[C@@H]1O [Compound 72, (3aR,4R,5R,7S,8S,9R,9aS,12R)-8-hydroxy-4,7,9,12-tetramethyl-3-oxo-7-vinyldecahydro-4,9a-propanocyclopenta[8]annulen-5-yl 2-((1-hydroxy-1,2-dihydrobenzo[d][1,2,3]diazaborinin-7-yl)oxy)acetate] | < 0.25 | < 0.25 | – | –
12 | C=C[C@]1(C)C[C@@H](OC(=O)COc2ccc3c(c2)B(O)OC3)[C@]2(C)[C@H](C)CC[C@]3(CCC(=O)[C@H]32)[C@@H](C)[C@@H]1O [Compound 1, (3aR,4R,5R,7S,8S,9R,9aS,12R)-8-hydroxy-4,7,9,12-tetramethyl-3-oxo-7-vinyldecahydro-4,9a-propanocyclopenta[8]annulen-5-yl 2-((1-hydroxy-1,3-dihydrobenzo[c][1,2]oxaborol-6-yl)oxy)acetate] | < 0.25 | < 0.25 | – | –
13 | C=C[C@]1(C)C[C@@H](OC(=O)COc2ccc3c(c2)B(O)OC3(C)C)[C@]2(C)[C@H](C)CC[C@]3(CCC(=O)[C@H]32)[C@@H](C)[C@@H]1O [Compound 20, (3aR,4R,5R,7S,8S,9R,9aS,12R)-8-hydroxy-4,7,9,12-tetramethyl-3-oxo-7-vinyldecahydro-4,9a-propanocyclopenta[8]annulen-5-yl 2-((1-hydroxy-3,3-dimethyl-1,3-dihydrobenzo[c][1,2]oxaborol-6-yl)oxy)acetate] | 0.5 to 2 (≈ 0.929 to 3.71 µM) | < 0.25 | – | –
14 | C=C[C@]1(C)C[C@@H](OC(=O)CSc2ccc3c(c2)B(O)OC3)[C@]2(C)[C@H](C)CC[C@]3(CCC(=O)[C@H]32)[C@@H](C)[C@@H]1O [Compound 61, (3aR,4R,5R,7S,8S,9R,9aS,12R)-8-hydroxy-4,7,9,12-tetramethyl-3-oxo-7-vinyldecahydro-4,9a-propanocyclopenta[8]annulen-5-yl 2-((1-hydroxy-1,3-dihydrobenzo[c][1,2]oxaborol-6-yl)thio)acetate] | < 0.25 | < 0.25 | – | –
15 | C=C[C@]1(C)C[C@@H](OC(=O)CNc2ccc3c(c2F)B(O)OC3)[C@]2(C)[C@H](C)CC[C@]3(CCC(=O)[C@H]32)[C@@H](C)[C@@H]1O [Compound 54, (3aR,4R,5R,7S,8S,9R,9aS,12R)-8-hydroxy-4,7,9,12-tetramethyl-3-oxo-7-vinyldecahydro-4,9a-propanocyclopenta[8]annulen-5-yl (7-fluoro-1-hydroxy-1,3-dihydrobenzo[c][1,2]oxaborol-6-yl)glycinate] | 0.5 to 2 (≈ 0.948 to 3.79 µM) | < 0.25 | – | –
16 | C=C[C@]1(C)C[C@@H](OC(=O)COc2ccc3c(c2C#N)B(O)OC3)[C@]2(C)[C@H](C)CC[C@]3(CCC(=O)[C@H]32)[C@@H](C)[C@@H]1O [Compound 16, (3aR,4R,5R,7S,8S,9R,9aS,12R)-8-hydroxy-4,7,9,12-tetramethyl-3-oxo-7-vinyldecahydro-4,9a-propanocyclopenta[8]annulen-5-yl 2-((7-cyano-1-hydroxy-1,3-dihydrobenzo[c][1,2]oxaborol-6-yl)oxy)acetate] | – | – | – | < 0.25
